{"source": "patent US8097728B2", "about": "“Iminosugar compounds with antiflavirus activity” (Philadelphia Health & Education Corporation, priority 2007, dated 2012)"}
{"tested_on": "BVDV", "test": "BVDV single cycle virus yield reduction assay in MDBK cells", "type": "cell-based, Bovine Viral Diarrhea virus (NADL strain)", "settings": "MDBK cells, virus yield reduction; FIG. 2C / 4C", "description": "BVDV antiviral and plaque assays. To evaluate antiviral activity against BVDV, a single cycle virus yield reduction assay was performed in the presence of various concentrations of the test compounds. Specifically, 2×10^5 MDBK cells/well were plated in 24 well plates. Twenty-four hours later, the cells were infected with BVDV at a multiplicity of infection (moi) of 0.5 PFU/cell in 100 ul complete media. After adsorption for 1 h at 37° C., the inoculum was removed, and cells were washed with media before media containing vehicle or various concentrations of each compound was added. At 22 hour post infection, both cell and media were collected and freeze-thawed three times before the virus was titered. For BVDV virus titer determination, 10^−2, 10^−3, and 10^−4 dilutions of virus were inoculated onto MDBK cells as described previously (Gu et al., 2000; Jordan et al., 2002). After absorption and washing the cells were overlaid with medium containing methylcellulose or soft agar and incubated at 37° C. for 3 days or until plaques were visible. Plaques were counted directly under the microscope or after staining with crystal violet in 70% methanol for 15 min.\nThe anti-viral activity of this family of compounds against BVDV was then determined by a single cycle viral yield reduction assay in Madin Darby Bovine Kidney (MDBK) cells where the compounds are incubated with cells for 20 hours during the period of infection. Yields of virus were then determined by plaque assay on new MDBK cell monolayers. Compound toxicity was measured by MTT assay and the CC50 determined as the concentration of compound producing 50% reduction in absorption readings. […] This is consistent with previous findings in which oxygenation and methoxylation of side chains emanating from the ring nitrogen were less toxic in tissue culture and in animals than straight chain alkylated DNJs (Mehta et al., 2002b)."}
{"smiles": "OC[C@@H]1[C@@H](O)[C@H](O)[C@@H](O)CN1CCCCCCC1CCCCC1", "note": "[OSL-2, N-hexylcyclohexyl-DNJ]", "antiviral activity against BVDV (in words)": "appeared to be inactive against BVDV"}
{"smiles": "CCOCCCCCN1C[C@H](O)[C@@H](O)[C@H](O)[C@H]1CO", "note": "[Compound 6-08, 6′-oxaoctyl-DNJ]", "antiviral activity against BVDV (in words)": "retained the best antiviral activity of the series"}
{"smiles": "OC[C@@H]1[C@@H](O)[C@H](O)[C@@H](O)CN1CCCCC1=CCCCC1", "note": "[OSL-12-51, N-butyl(1-cyclohexenyl)-DNJ]", "antiviral activity against BVDV (in words)": "substantially less active against BVDV"}
